Measurements published in PubChem BioAssay AID1053144 (Broad Institute, 2014).

Test system: NPC TCF/LEF luciferase reporter, Wnt3a EC25, 24 h
Assay: TCF/LEF reporter activation in neural progenitors – cell-based, iPS-derived NPC, luciferase, Wnt3a, cherry-pick, dose response (AID 1053144);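 also: Wnt3a stimulus is conditioned medium from Wnt3a-transfected mouse L cells at 5% in well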

| SMILES | AC30 |
| --- | --- |
| Cc1csc(=NC(=O)c2ccccc2)n1C | 8.72 µM |
| O=C(/C=C/c1ccc(O)c(O)c1)c1ccccc1O | 8.06 µM |
| Fc1ccccc1-c1ccc(/C=N/Nc2nc3ccccc3[nH]2)o1 | 17.3 µM |
| O=C(/C=C/c1ccco1)NCCc1ccccc1 | 5.05 µM |
| O=C(c1ccccc1)c1ccc2nc(-c3ccco3)c(-c3ccco3)nc2c1 | 8.23 µM |
| CN(C)S(=O)(=O)Oc1cccc(C(=O)Nc2cccc(Cl)c2)c1 | 13 µM |
| O=C(Nc1ccc(Cl)cc1)OCc1ccccn1 | 9.15 µM |
| CC1(C)CC(=O)/C(=N/Nc2ccc(Cl)cc2)CO1 | 4.78 µM |
| O=C(Nc1ncccc1O)c1ccc2c(c1)OCO2 | 7.75 µM |
| CCn1c(SCC(=O)c2ccc(Cl)cc2)nnc1C(C)C | 12.1 µM |
| Nc1ccc(N=Nc2ccccc2Cl)c(N)n1 | 4.42 µM |
| Cc1cccc(NC(=O)c2c(O)c3ccccc3[nH]c2=O)c1 | 6.72 µM |
| COc1ccc2oc(C(=O)c3ccccc3)c(N)c2c1 | 7.18 µM |
| O=C(Nc1ncccc1O)c1ccc(Oc2ccccc2)cc1 | 12.3 µM |
| CCOC(=O)c1ccc(-c2ccc(CO)o2)cc1 | 17.5 µM |
| CC(=O)Nc1sc2c(c1-c1nc3ccccc3s1)CN(C(C)C)CC2 | 2.43 µM |
| O=C(NCCN1CCOCC1)c1cc(-c2ccccc2)on1 | 8.01 µM |
| COc1ccc(C(=O)COC(=O)c2sccc2C)cc1OC | 11.8 µM |
| O=c1oc2ccccc2cc1-c1nc2ccccc2o1 | 8.58 µM |
| O=C(CCc1nnc(C2CCCCC2)o1)N1CCN(c2ccccc2F)CC1 | 8.97 µM |
| Oc1ccc(Br)cc1-c1cc(-c2ccccc2F)[nH]n1 | 12.9 µM |
| COc1cccc(NC(=O)c2csc3c2CCCC3)c1 | 4.78 µM |
| O=C(c1cc2ccccc2o1)c1cccs1 | 8.58 µM |
| CC(C)c1ccc(NC(=O)c2ccccc2NC(=O)C2CCCCC2C(=O)O)cc1 (stereo not drawn) | 15.5 µM |
| O=C(C=Cc1ccco1)c1ccc2ccccc2c1 | 11.2 µM |
| Cc1[nH]c2ccccc2c1/C=N/Nc1nc2ccccc2[nH]1 | 5.61 µM |
| O=C(c1cccs1)c1coc2ccc(O)cc12 | 15 µM |

| SMILES | AC30 |
| --- | --- |
| O=C(N/N=C/C(Br)=C\c1ccccc1)c1cccs1 | 13.7 µM |
| COc1ccccc1C(=O)O/N=C(\N)c1ccc(Cl)cc1 | 6.87 µM |
| COc1ccccc1CNC(=O)COc1ccccc1C(=O)c1cnn(-c2ccccc2)c1 | 10 µM |
| COc1cccc(/C=C2\N=C3CCCCCN3C2=O)c1 | 16.1 µM |
| O=C1c2ccccc2C(=O)C1c1ccc(O)cc1 | 14.7 µM |
| COCCNC(=O)c1cc2c(s1)-c1ccc(Cl)cc1SC2 | 11.2 µM |
| COc1ccc(N=C(C)c2sc3ccccc3c2O)cc1 | 4.78 µM |
| Cn1c(SCC(=O)c2ccccc2)nnc1-c1ccco1 | 4.78 µM |
| CCOc1ccc(-c2nnc(-c3ccccc3)n2-c2ccccc2)cc1 | 12.4 µM |
| Cc1cc(O)c(NC(=O)c2cccc([N+](=O)[O-])c2)cc1C | 11.2 µM |
| CCOC(=O)c1c(Nc2ccc(OC)cc2)n[nH]c1C | 11.4 µM |
| CC(=O)Nc1ccc2nc3ccccc3nc2c1 | 15.3 µM |
| O=c1/c(=C\c2ccc(F)cc2)sc2n1CCCN=2 | 12.5 µM |
| COc1ccc(NC(=O)n2ncc3c(C)cccc32)cc1 | 4.78 µM |
| COc1ccc(-c2ccc(SCC(=O)Nc3cc(C)on3)nn2)cc1OC | 15.1 µM |
| Cc1cccc(/C(N)=N/OC(=O)c2ccc(Br)o2)c1 | 11.7 µM |
| C(=C\c1nc(-c2cccnc2)no1)/c1ccccc1 | 4.78 µM |
| Cc1ccc(C(=O)NNc2ncnc3ccccc23)cc1 | 8.88 µM |
| COc1ccc(N2COC3c4cccc5cccc(c45)C32)cc1 (stereo not drawn) | 17.8 µM |
| O=C1C=C(c2ccc3[nH]ccc3c2)CCC1 | 10.1 µM |
| O=C(O)c1ccc(/C=C(\c2nc3ccccc3[nH]2)c2nc3ccccc3s2)cc1 | 15.8 µM |
| CN1CCSc2ccc(C(=O)Nc3cc(F)ccc3F)cc21 | 2.35 µM |
| O=C(COC(=O)c1cccs1)c1ccc2ccccc2c1 | 9.52 µM |
| CCOC(=O)C1=C(COC(=O)c2cccc(N(C)C)c2)NC(=O)NC1C (stereo not drawn) | 11.8 µM |
| Cc1cc(N(C)C)ccc1N=Nc1ccc2ncccc2c1 | 2.2 µM |
| Cc1cccc(C(=O)OCC(=O)N2CCCCCC2)c1C | 12.1 µM |
